Test results from patent US20240327408A1, “COMPOUNDS CONTAINING TETRAHYDRONAPHTHYRIDINONE OR TETRAHYDROPYRIDOPYRIMIDINONE SKELETON, PREPARATION METHOD THEREFOR AND PHARMACEUTICAL USE THEREOF” (CHINA PHARMACEUTICAL UNIVERSITY, priority 2021, published 2024).

How the values were obtained:
[1] = biological target: T1, hClpP (Homo sapiens, UniProt Q16740); test: activating ClpP hydrolysis of FITC-casein (fluorescence kinetic detection); assay type: biochemical; details: hClpP 1 μM, FITC-Casein 4 μM, 37° C.
T1 construct: made in house
T1 sequence (Q16740 57-277): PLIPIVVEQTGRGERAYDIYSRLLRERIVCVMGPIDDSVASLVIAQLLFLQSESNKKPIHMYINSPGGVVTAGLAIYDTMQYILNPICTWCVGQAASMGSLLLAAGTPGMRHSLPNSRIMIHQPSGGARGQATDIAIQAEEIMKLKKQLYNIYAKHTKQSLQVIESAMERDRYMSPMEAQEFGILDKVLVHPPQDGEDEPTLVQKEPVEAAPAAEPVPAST
Method in brief: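 hClpP at 1 μM final preincubated with compounds (assay-buffer dilutions 200 μM–2 nM, before mixing) 30 min at 37 °C, then 4 μM final FITC-casein added. Fluorescence read kinetically at 37 °C every 1 min for 15 min, duplicate wells.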

[2] = system: MV4; 11 cells; test: inhibiting the growth of MV4; 11 cells; assay type: cell-based; details: Homo sapiens
[3] = system: xenograft solid tumor models such as colon cancer, breast cancer, and brain tumors; details: Oncotarget 2016, 7, 74380-74392; cited from earlier work

| EC50 [1] [nM] | IC50 [2] [nM] | Compound | tumor regression in xenograft solid tumor models [3] |
| --- | --- | --- | --- |
| 1000 to 10000 | 1000 to 10000 | O=c1c2c(n3ncnc3n1Cc1ccc(Cl)cc1)CCN(Cc1cccc(Cl)c1)C2 [Compound I-154, 4-(4-chlorobenzyl)-7-(3-chlorobenzyl)-6,7,8,9-tetrahydropyrido[3,4-e][1,2,4]triazolo[1,5-a]pyrimidine-5(4H)-one] |  |
| 1000 to 10000 | 1000 to 10000 | N#Cc1cccc(CN2CCc3c(c(=O)n(Cc4ccc(Cl)cc4)c4ncnn34)C2)c1 [Compound I-155, 4-(4-chlorobenzyl)-7-(3-cyanobenzyl)-6,7,8,9-tetrahydropyrido[3,4-e][1,2,4]triazolo[1,5-a]pyrimidine-5(4H)-one] |  |
| 1000 to 10000 | 1000 to 10000 | O=c1c2c(n3nccc3n1Cc1ccccc1)CCN(Cc1cccc(Cl)c1)C2 [Compound I-156, 4-benzyl-7-(3-chlorobenzyl)-6,7,8,9-tetrahydropyrazolo[1,5-a]pyrido[3,4-e]pyrimidine-5(4H)-one] |  |
| 1000 to 10000 | 1000 to 10000 | N#Cc1cccc(CN2CCc3c(c(=O)n(Cc4ccccc4)c4ccnn34)C2)c1 [Compound I-157, 4-benzyl-7-(3-cyanobenzyl)-6,7,8,9-tetrahydropyrazolo[1,5-a]pyrido[3,4-e]pyrimidine-5(4H)-one] |  |
| 1000 to 10000 | 1000 to 10000 | Cc1cccc(CN2CCc3c(c(=O)n(Cc4ccccc4)c4ccnn34)C2)c1 [Compound I-158, 4-benzyl-7-(3-methylbenzyl)-6,7,8,9-tetrahydropyrazolo[1,5-a]pyrido[3,4-e]pyrimidine-5(4H)-one] |  |
| 1000 to 10000 | 1000 to 10000 | O=c1c2c(n3nccc3n1Cc1ccc(C(F)(F)F)cc1)CCN(Cc1ccccc1)C2 [Compound I-159, 4-(4-trifluoromethylbenzyl)-7-benzyl-6,7,8,9-tetrahydropyrazolo[1,5-a]pyrido[3,4-e]pyrimidine-5(4H)-one] |  |
| 1000 to 10000 | 1000 to 10000 | N#Cc1cccc(CN2CCc3c(c(=O)n(Cc4ccc(C(F)(F)F)cc4)c4ccnn34)C2)c1 [Compound I-160, 4-(4-trifluoromethylbenzyl)-7-(3-cyanobenzyl)-6,7,8,9-tetrahydropyrazolo[1,5-a]pyrido[3,4-e]pyrimidine-5(4H)-one] |  |
| 1000 to 10000 | 1000 to 10000 | O=c1c2c(n3nccc3n1Cc1ccc(Cl)cc1)CCN(Cc1ccccc1)C2 [Compound I-161, 4-(4-chlorobenzyl)-7-benzyl-6,7,8,9-tetrahydropyrazolo[1,5-a]pyrido[3,4-e]pyrimidine-5(4H)-one] |  |
| 1000 to 10000 | 1000 to 10000 | O=c1c2c(n3nccc3n1Cc1ccc(Cl)cc1)CCN(Cc1cccc(Cl)c1)C2 [Compound I-162, 4-(4-chlorobenzyl)-7-(3-chlorobenzyl)-6,7,8,9-tetrahydropyrazolo[1,5-a]pyrido[3,4-e]pyrimidine-5(4H)-one] |  |
| 1000 to 10000 | 1000 to 10000 | N#Cc1cccc(CN2CCc3c(c(=O)n(Cc4ccc(Cl)cc4)c4ccnn34)C2)c1 [Compound I-163, 4-(4-chlorobenzyl)-7-(3-cyanobenzyl)-6,7,8,9-tetrahydropyrazolo[1,5-a]pyrido[3,4-e]pyrimidine-5(4H)-one] |  |
| 1000 to 10000 | 1000 to 10000 | O=c1c2c(n3cncc3n1Cc1ccc(C(F)(F)F)cc1)CCN(Cc1ccccc1)C2 [Compound I-164, 7-benzyl-4-(4-trifluoromethylbenzyl)-6,7,8,9-tetrahydroimidazo[1,5-a]pyrido[3,4-e]pyrimidine-5(4H)-one] |  |
| 1000 to 10000 | 1000 to 10000 | N#Cc1cccc(CN2CCc3c(c(=O)n(Cc4ccc(C(F)(F)F)cc4)c4cncn34)C2)c1 [Compound I-165, 7-(3-cyanobenzyl)-4-(4-trifluoromethylbenzyl)-6,7,8,9-tetrahydroimidazo[1,5-a]pyrido[3,4-e]pyrimidine-5(4H)-one] |  |
| 1000 to 10000 | 1000 to 10000 | O=c1c2c(n3cncc3n1Cc1ccc(Cl)cc1)CCN(Cc1cccc(Cl)c1)C2 [Compound I-166, 7-(3-chlorobenzyl)-4-(4-chlorobenzyl)-6,7,8,9-tetrahydroimidazo[1,5-a]pyrido[3,4-e]pyrimidine-5(4H)-one] |  |
| 1000 to 10000 | 1000 to 10000 | N#Cc1cccc(CN2CCc3c(c(=O)n(Cc4ccc(Cl)cc4)c4cncn34)C2)c1 [Compound I-167, 7-(3-cyanobenzyl)-4-(4-chlorobenzyl)-6,7,8,9-tetrahydroimidazo[1,5-a]pyrido[3,4-e]pyrimidine-5(4H)-one] |  |
| < 1000 | < 1000 | O=c1c2c(n3cccc3n1Cc1ccc(C(F)(F)F)cc1)CCN(Cc1ccccc1)C2 [Compound I-168, 3-benzyl-6-(4-trifluoromethylbenzyl)-1,2,3,4-tetrahydropyrido[3,4-e]pyrrolo[1,2-a]pyrimidine-5(6H)-one] |  |
| < 1000 | < 1000 | O=c1c2c(n3cccc3n1Cc1ccc(Cl)cc1)CCN(Cc1cccc(Cl)c1)C2 [Compound I-169, 3-(3-chlorobenzyl)-6-(4-chlorobenzyl)-1,2,3,4-tetrahydropyrido[3,4-e]pyrrolo[1,2-a]pyrimidine-5(6H)-one] |  |

| Compound | EC50 [1] [nM] | IC50 [2] [nM] | tumor regression in xenograft solid tumor models [3] |
| --- | --- | --- | --- |
| Cc1ccccc1CN1C(=O)C2=C(CCN(Cc3ccccc3)C2)N2CCN=C12 [ONC201, reference compound] |  | 100 to 10000 | cause tumor regression |
